Assay results published in ChEMBL document CHEMBL1201861, “Genomics of Drug Sensitity in Cancer screening data, Wellcome Trust Sanger Institute”.

Columns and labels:
Assay in all cases: cells
[1] = test system: COR-L23; assay type: functional, cell-based, Homo sapiens; conditions: Homo sapiens, COR-L23;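 also: cell viability assay measuring how strongly compounds suppress growth of COR-L23 cells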
Description: SANGER: Inhibition of human COR-L23 cell growth in a cell viability assay.

[2] = test system: ETK-1; assay type: functional, cell-based, Homo sapiens; conditions: Homo sapiens, ETK-1;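 also: growth inhibition of human ETK-1 cells, read out with a cell viability assay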
Description: SANGER: Inhibition of human ETK-1 cell growth in a cell viability assay.

[3] = test system: CAL-12T; assay type: functional, cell-based, Homo sapiens; conditions: Homo sapiens, CAL-12T;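 also: growth inhibition of human CAL-12T cells, read out with a cell viability assay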
Description: SANGER: Inhibition of human CAL-12T cell growth in a cell viability assay.

[4] = test system: SW1783; assay type: functional, cell-based, Homo sapiens; conditions: Homo sapiens, SW1783;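 also: cell growth inhibition measured with a viability assay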
Description: SANGER: Inhibition of human SW1783 cell growth in a cell viability assay.

[5] = test system: RCM-1; assay type: functional, cell-based, Homo sapiens; conditions: Homo sapiens, RCM-1;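 also: growth inhibition of the RCM-1 line, determined with a cell viability readout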
Description: SANGER: Inhibition of human RCM-1 cell growth in a cell viability assay.

[6] = test system: SJSA-1; assay type: functional, cell-based, Homo sapiens; conditions: Homo sapiens, SJSA-1;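 also: growth inhibition of human SJSA-1 cells, read out through a cell viability measurement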
Description: SANGER: Inhibition of human SJSA-1 cell growth in a cell viability assay.

[7] = test system: SK-MEL3; assay type: functional, cell-based, Homo sapiens, SK-MEL-3; conditions: Homo sapiens, SK-MEL3;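 also: growth inhibition of human SK-MEL-3 cells, read out with a cell viability assay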
Description: SANGER: Inhibition of human SK-MEL-3 cell growth in a cell viability assay.

[8] = test system: Panc1005; assay type: functional, cell-based, Homo sapiens; conditions: Homo sapiens, Panc1005;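 also: growth inhibition of human PANC-10-05 cells, measured by a cell viability assay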
Description: SANGER: Inhibition of human PANC-10-05 cell growth in a cell viability assay.

[9] = test system: A-431; assay type: functional, cell-based, Homo sapiens; conditions: Homo sapiens, A-431;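 also: growth inhibition of A-431 cells, determined with a cell viability read-out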
Description: SANGER: Inhibition of human A431 cell growth in a cell viability assay.

[10] = test system: U-87 MG; assay type: functional, cell-based, Homo sapiens, U-87MG ATCC; conditions: Homo sapiens, U-87 MG;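 also: growth inhibition of the cells measured with a viability assay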
Description: SANGER: Inhibition of human U-87-MG cell growth in a cell viability assay.

[11] = test system: PA-1; assay type: functional, cell-based, Homo sapiens; conditions: Homo sapiens, PA-1;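 also: IC50 for suppression of PA-1 cell proliferation, determined with a cell viability read-out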
Description: SANGER: Inhibition of human PA-1 cell growth in a cell viability assay.

[12] = test system: CTB-1; assay type: functional, cell-based, Homo sapiens; conditions: Homo sapiens, CTB-1
Description: SANGER: Inhibition of human CTB-1 cell growth in a cell viability assay.

[13] = test system: MFM-223; assay type: functional, cell-based, Homo sapiens; conditions: Homo sapiens, MFM-223
Description: SANGER: Inhibition of human MFM-223 cell growth in a cell viability assay.

[14] = test system: KM12; assay type: functional, cell-based, Homo sapiens; conditions: Homo sapiens, KM12;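 also: KM12 cell growth inhibition, read out with a cell viability assay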
Description: SANGER: Inhibition of human KM12 cell growth in a cell viability assay.

[15] = test system: MHH-NB-11; assay type: functional, cell-based, Homo sapiens; conditions: Homo sapiens, MHH-NB-11;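 also: growth inhibition of human MHH-NB-11 cells, read out by a cell viability assay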
Description: SANGER: Inhibition of human MHH-NB-11 cell growth in a cell viability assay.

[16] = test system: U-251; assay type: functional, cell-based, Homo sapiens; conditions: Homo sapiens, U-251;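 also: growth inhibition of human U-251 cells, read out through a cell viability assay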
Description: SANGER: Inhibition of human U251 cell growth in a cell viability assay.

[17] = test system: SK-MEL-2; assay type: functional, cell-based, Homo sapiens; conditions: Homo sapiens, SK-MEL-2;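 also: growth inhibition of human SK-MEL-2 cells measured with a cell viability assay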
Description: SANGER: Inhibition of human SK-MEL-2 cell growth in a cell viability assay.

[18] = test system: SF-126; assay type: functional, cell-based, Homo sapiens; conditions: Homo sapiens, SF-126;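 also: growth inhibition of human SF126 cells, read out with a cell viability assay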
Description: SANGER: Inhibition of human SF126 cell growth in a cell viability assay.

[19] = test system: HCC1569; assay type: functional, cell-based, Homo sapiens; conditions: Homo sapiens, HCC1569;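 also: growth inhibition of human HCC1569 cells, read out with a cell viability assay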
Description: SANGER: Inhibition of human HCC1569 cell growth in a cell viability assay.

[20] = test system: A2058; assay type: functional, cell-based, Homo sapiens; conditions: Homo sapiens, A2058;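 also: reduction of A2058 cell growth, read out with a viability assay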
Description: SANGER: Inhibition of human A2058 cell growth in a cell viability assay.

[21] = test system: EW-18; assay type: functional, cell-based, Homo sapiens; conditions: Homo sapiens, EW-18;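 also: growth inhibition of EW-18 cells, read out by a cell viability assay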
Description: SANGER: Inhibition of human EW-18 cell growth in a cell viability assay.

[22] = test system: SJRH30; assay type: functional, cell-based, Homo sapiens; conditions: Homo sapiens, SJRH30;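 also: growth inhibition of human SJRH30 cells, read out with a cell viability assay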
Description: SANGER: Inhibition of human SJRH30 cell growth in a cell viability assay.

[23] = test system: NY; assay type: functional, cell-based, Homo sapiens; conditions: Homo sapiens, NY
Description: SANGER: Inhibition of human NY cell growth in a cell viability assay.

[24] = test system: DJM-1; assay type: functional, cell-based, Homo sapiens; conditions: Homo sapiens, DJM-1;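 also: growth inhibition of human DJM-1 cells, read out by a cell viability assay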
Description: SANGER: Inhibition of human DJM-1 cell growth in a cell viability assay.

[25] = test system: BCPAP; assay type: functional, cell-based, Homo sapiens; conditions: Homo sapiens, BCPAP;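 also: growth inhibition of BCPAP cells, read out in a cell viability assay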
Description: SANGER: Inhibition of human BCPAP cell growth in a cell viability assay.

[26] = test system: RS4-11; assay type: functional, cell-based, Homo sapiens; conditions: Homo sapiens, RS4-11;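 also: growth inhibition of RS4-11 cells, read out by a cell viability assay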
Description: SANGER: Inhibition of human RS4-11 cell growth in a cell viability assay.

[27] = test system: MPP-89; assay type: functional, cell-based, Homo sapiens; conditions: Homo sapiens, MPP-89;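 also: growth inhibition of human MPP-89 cells, read out with a cell viability assay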
Description: SANGER: Inhibition of human MPP-89 cell growth in a cell viability assay.

[28] = test system: CHP-212; assay type: functional, cell-based, Homo sapiens; conditions: Homo sapiens, CHP-212
Description: SANGER: Inhibition of human CHP-212 cell growth in a cell viability assay.

[29] = test system: Ca-Ski; assay type: functional, cell-based, Homo sapiens; conditions: Homo sapiens, Ca-Ski;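 also: cell viability assay measuring inhibition of Ca-Ski cell growth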
Description: SANGER: Inhibition of human Ca-Ski cell growth in a cell viability assay.

[30] = test system: MHH-PREB-1; assay type: functional, cell-based, Homo sapiens; conditions: Homo sapiens, MHH-PREB-1;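 also: cell viability assay measuring inhibition of proliferation of human MHH-PREB-1 cells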
Description: SANGER: Inhibition of human MHH-PREB-1 cell growth in a cell viability assay.

[31] = test system: D-263MG; assay type: functional, cell-based, Homo sapiens; conditions: Homo sapiens, D-263MG
Description: SANGER: Inhibition of human D-263MG cell growth in a cell viability assay.

[32] = test system: CAL-85-1; assay type: functional, cell-based, Homo sapiens; conditions: Homo sapiens, CAL-85-1;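 also: growth inhibition of human CAL-85-1 cells, read out with a cell viability assay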
Description: SANGER: Inhibition of human CAL-85-1 cell growth in a cell viability assay.

[33] = test system: NCI-H2087; assay type: functional, cell-based, Homo sapiens; conditions: Homo sapiens, NCI-H2087;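 also: growth inhibition determined with a cell viability readout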
Description: SANGER: Inhibition of human NCI-H2087 cell growth in a cell viability assay.

[34] = test system: RT-112; assay type: functional, cell-based, Homo sapiens; conditions: Homo sapiens, RT-112
Description: SANGER: Inhibition of human RT-112 cell growth in a cell viability assay.

[35] = test system: CAMA-1; assay type: functional, cell-based, Homo sapiens; conditions: Homo sapiens, CAMA-1;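 also: growth inhibition of CAMA-1 cells, read out with a cell viability assay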
Description: SANGER: Inhibition of human CAMA-1 cell growth in a cell viability assay.

[36] = test system: EVSA-T; assay type: functional, cell-based, Homo sapiens; conditions: Homo sapiens, EVSA-T;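 also: growth inhibition of EVSA-T cells, read out with a cell viability assay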
Description: SANGER: Inhibition of human EVSA-T cell growth in a cell viability assay.

[37] = test system: SIMA; assay type: functional, cell-based, Homo sapiens; conditions: Homo sapiens, SIMA;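 also: growth inhibition of SIMA cells, measured with a cell viability readout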
Description: SANGER: Inhibition of human SIMA cell growth in a cell viability assay.

[38] = test system: MFH-ino; assay type: functional, cell-based, Homo sapiens; conditions: Homo sapiens, MFH-ino;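 also: growth inhibition of human MFH-ino cells, read out by a cell viability assay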
Description: SANGER: Inhibition of human MFH-ino cell growth in a cell viability assay.

| SMILES | IC50 [1] | IC50 [2] | IC50 [4] | IC50 [5] | IC50 [6] | IC50 [9] | IC50 [10] | IC50 [11] | IC50 [13] | IC50 [14] | IC50 [16] | IC50 [17] | IC50 [18] | IC50 [23] | IC50 [24] | IC50 [25] | IC50 [27] | IC50 [28] | IC50 [31] | IC50 [33] | further results |
| --- | --- | --- | --- | --- | --- | --- | --- | --- | --- | --- | --- | --- | --- | --- | --- | --- | --- | --- | --- | --- | --- |
| COc1cc2c(Nc3ccc(NC(=O)c4ccccc4)cc3)ncnc2cc1OCCCN1CCOCC1 | > 4 µM | > 4 µM | > 4 µM | > 4 µM | > 4 µM | > 4 µM | > 4 µM | 2.87 µM | > 4 µM | > 4 µM | > 4 µM | > 4 µM | > 4 µM | > 4 µM | > 4 µM | > 4 µM | > 4 µM | 1.47 µM | 2.71 µM | > 4 µM | IC50 [3]: > 4 µM; IC50 [7]: > 4 µM; IC50 [8]: > 4 µM; IC50 [12]: 1.67 µM; IC50 [15]: > 4 µM; IC50 [19]: > 4 µM; IC50 [20]: > 4 µM; IC50 [21]: > 4 µM; IC50 [22]: > 4 µM; IC50 [26]: 0.554 µM; IC50 [29]: > 4 µM; IC50 [30]: > 4 µM; IC50 [32]: > 4 µM; IC50 [34]: 2.66 µM; IC50 [35]: > 4 µM |
| CC(C)c1ccccc1Cc1cc(C(=O)Nc2ccc(S(=O)(=O)c3ccccc3C(C)(C)C)cc2)c(O)c(O)c1O | 0.591 µM | 0.788 µM | 0.213 µM | 3.39 µM | 0.327 µM | 1.47 µM | 0.0822 µM | 0.134 µM | 0.847 µM | 1.88 µM | 0.388 µM | 0.23 µM | 0.0571 µM | 0.178 µM | 0.52 µM | 0.242 µM | 1.27 µM | 4.57 µM | 0.283 µM | 0.575 µM | IC50 [3]: 1.12 µM; IC50 [7]: 0.693 µM; IC50 [8]: 1.1 µM; IC50 [36]: 0.14 µM; IC50 [19]: 4.88 µM; IC50 [20]: 0.367 µM; IC50 [22]: 0.137 µM; IC50 [37]: 0.664 µM; IC50 [32]: 1.43 µM; IC50 [34]: 0.535 µM; IC50 [35]: 0.661 µM |
| CC(C)CCN1c2nc(Nc3cc(F)c(O)c(F)c3)ncc2N(C)C(=O)C1C (stereo not given) | 4.74 µM | 4.36 µM | > 5 µM | > 5 µM | 2.67 µM | 4.14 µM | > 5 µM | > 5 µM | > 5 µM | 3.12 µM | 2.73 µM | > 5 µM | > 5 µM | > 5 µM | 4.8 µM | > 5 µM | > 5 µM | > 5 µM | > 5 µM | > 5 µM | IC50 [3]: 4.06 µM; IC50 [7]: > 5 µM; IC50 [8]: > 5 µM; IC50 [12]: 1.45 µM; IC50 [15]: > 5 µM; IC50 [19]: > 5 µM; IC50 [20]: > 5 µM; IC50 [21]: 0.622 µM; IC50 [22]: > 5 µM; IC50 [38]: > 5 µM; IC50 [26]: > 5 µM; IC50 [29]: 3.48 µM; IC50 [30]: 4.4 µM; IC50 [32]: > 5 µM; IC50 [34]: > 5 µM; IC50 [35]: > 5 µM |
| Nc1cccc2c1CN(C1CCC(=O)NC1=O)C2=O (stereo not given) [LENALIDOMIDE] | > 5 µM | > 5 µM | > 5 µM | > 5 µM | > 5 µM | > 5 µM | > 5 µM | > 5 µM | > 5 µM | > 5 µM | > 5 µM | > 5 µM | > 5 µM | > 5 µM | > 5 µM | > 5 µM | > 5 µM | > 5 µM | > 5 µM | > 5 µM | IC50 [3]: > 5 µM; IC50 [7]: > 5 µM; IC50 [8]: > 5 µM; IC50 [12]: > 5 µM; IC50 [15]: > 5 µM; IC50 [19]: > 5 µM; IC50 [20]: > 5 µM; IC50 [21]: > 5 µM; IC50 [22]: > 5 µM; IC50 [38]: > 5 µM; IC50 [26]: > 5 µM; IC50 [29]: > 5 µM; IC50 [30]: > 5 µM; IC50 [32]: > 5 µM; IC50 [34]: > 5 µM; IC50 [35]: > 5 µM |
| CN(C)C(=N)NC(=N)N [METFORMIN] | > 20000 µM | 14100 µM | > 20000 µM | > 20000 µM | > 20000 µM | > 20000 µM | > 20000 µM | 14200 µM | > 20000 µM | > 20000 µM | 9900 µM | > 20000 µM | > 20000 µM | 14100 µM | 10200 µM | > 20000 µM | > 20000 µM | 9630 µM | > 20000 µM | > 20000 µM | IC50 [12]: > 20000 µM; IC50 [20]: > 20000 µM; IC50 [21]: 5850 µM; IC50 [26]: > 20000 µM; IC50 [29]: > 20000 µM; IC50 [30]: 11600 µM; IC50 [34]: > 20000 µM; IC50 [35]: 11000 µM |
| CC1(C)CNc2cc(NC(=O)c3cccnc3NCc3ccncc3)ccc21 [MOTESANIB] | > 2 µM | > 2 µM | > 2 µM | > 2 µM | > 2 µM | > 2 µM | > 2 µM | > 2 µM | > 2 µM | > 2 µM | > 2 µM | > 2 µM | > 2 µM | > 2 µM | > 2 µM | > 2 µM | > 2 µM | > 2 µM | > 2 µM | > 2 µM | IC50 [3]: > 2 µM; IC50 [7]: > 2 µM; IC50 [8]: > 2 µM; IC50 [12]: > 2 µM; IC50 [15]: > 2 µM; IC50 [19]: > 2 µM; IC50 [20]: > 2 µM; IC50 [21]: > 2 µM; IC50 [22]: > 2 µM; IC50 [26]: > 2 µM; IC50 [29]: > 2 µM; IC50 [30]: > 2 µM; IC50 [32]: > 2 µM; IC50 [34]: 1.59 µM; IC50 [35]: > 2 µM |
| CCN(CC)CCCCNc1ncc2cc(-c3cc(OC)cc(OC)c3)c(NC(=O)NC(C)(C)C)nc2n1 [PD-173074] | > 2 µM | > 2 µM | > 2 µM | > 2 µM | > 2 µM | > 2 µM | > 2 µM | > 2 µM | 0.216 µM | > 2 µM | > 2 µM | > 2 µM | > 2 µM | > 2 µM | > 2 µM | > 2 µM | > 2 µM | > 2 µM | 0.712 µM | > 2 µM | IC50 [3]: > 2 µM; IC50 [7]: > 2 µM; IC50 [8]: > 2 µM; IC50 [12]: > 2 µM; IC50 [15]: > 2 µM; IC50 [19]: > 2 µM; IC50 [20]: > 2 µM; IC50 [21]: > 2 µM; IC50 [22]: > 2 µM; IC50 [26]: 1.34 µM; IC50 [29]: > 2 µM; IC50 [30]: > 2 µM; IC50 [32]: > 2 µM; IC50 [34]: 0.547 µM; IC50 [35]: > 2 µM |
| Cn1cnc2c(F)c(Nc3ccc(Br)cc3Cl)c(C(=O)NOCCO)cc21 [SELUMETINIB] | 3.96 µM | > 4 µM | > 4 µM | 0.494 µM | 3.78 µM | > 4 µM | > 4 µM | > 4 µM | > 4 µM | 2.54 µM | > 4 µM | 0.405 µM | > 4 µM | > 4 µM | > 4 µM | 2.13 µM | > 4 µM | < 0.0156 µM | 1.18 µM | 1.38 µM | IC50 [3]: > 4 µM; IC50 [7]: 1.95 µM; IC50 [8]: > 4 µM; IC50 [12]: > 4 µM; IC50 [15]: > 4 µM; IC50 [19]: > 4 µM; IC50 [21]: > 4 µM; IC50 [22]: > 4 µM; IC50 [26]: > 4 µM; IC50 [29]: > 4 µM; IC50 [30]: > 4 µM; IC50 [32]: > 4 µM; IC50 [34]: 2.26 µM; IC50 [35]: > 4 µM |
